From patent publication US9062071B2, “Substituted piperidines as HDM2 inhibitors” (Merck Sharp & Dohme Corp, priority 2011, dated 2015)

Target: HDM2 protein (Homo sapiens, UniProt Q00987)
Test: fluorescence polarization screening assay (FP IC50)
Format: binding
Details: class symbols
Method: The compounds were evaluated to determine activity at the HDM2 protein by known methods such as the fluorescence polarization screening assay that measures the inhibitory concentration that achieves 50% of maximal activity (FP IC50) and the dissociation constant for inhibitor binding (FP Ki). [Zhang et al., J. Analytical Biochemistry 331: 138-146 (2004)].

HDM2 protein, sequence (Q00987 whole entry): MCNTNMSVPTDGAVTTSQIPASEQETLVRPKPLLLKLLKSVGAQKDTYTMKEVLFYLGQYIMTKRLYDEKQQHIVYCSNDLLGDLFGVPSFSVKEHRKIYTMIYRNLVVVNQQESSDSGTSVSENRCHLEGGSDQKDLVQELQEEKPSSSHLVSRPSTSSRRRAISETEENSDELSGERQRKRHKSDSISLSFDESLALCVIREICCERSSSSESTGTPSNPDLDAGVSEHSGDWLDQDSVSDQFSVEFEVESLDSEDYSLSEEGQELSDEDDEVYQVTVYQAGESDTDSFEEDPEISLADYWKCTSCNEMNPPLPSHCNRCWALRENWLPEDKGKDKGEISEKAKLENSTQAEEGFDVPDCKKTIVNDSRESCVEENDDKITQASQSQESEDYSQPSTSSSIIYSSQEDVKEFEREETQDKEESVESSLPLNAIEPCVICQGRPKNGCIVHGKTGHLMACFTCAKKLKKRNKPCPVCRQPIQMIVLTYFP

SMILES | IC50 [nM]
CCC[C@H]1N(C(=O)c2ncccc2C(F)(F)F)CCC[C@@]1(Oc1csc(C(F)(F)F)c1)C(=O)N1CCc2cc(C(N)=O)ccc2C1 [Compound A89, 2-{[(2R,3S)-2-propyl-1-{[3-(trifluoromethyl)pyridin-2-yl]carbonyl}-3-{[5-(trifluoromethyl)thiophen-3-yl]oxy}piperidin-3-yl]carbonyl}-1,2,3,4-tetrahydroisoquinoline-6-carboxamide] | 101 to 20000
CCC[C@H]1N(C(=O)c2ncccc2C(F)(F)F)CCC[C@@]1(Oc1csc(C(F)(F)F)c1)C(=O)N1CCc2cc(S(C)(=O)=O)ccc2C1 [Compound A90, 6-(methylsulfonyl)-2-{[(2R,3S)-2-propyl-1-{[3-(trifluoromethyl)pyridin-2-yl]carbonyl}-3-{[5-(trifluoromethyl)thiophen-3-yl]oxy}piperidin-3-yl]carbonyl}-1,2,3,4-tetrahydroisoquinoline] | 101 to 20000
CCC[C@H]1N(C(=O)c2ncccc2C(F)(F)F)CCC[C@@]1(Oc1csc(C(F)(F)F)c1)C(=O)N1CCc2cc(Cl)ccc2C1C(=O)N1CCN(CCO)CC1 (stereo partly drawn) [Compound A92, 2-{4-[(6-chloro-2-{[(2R,3S)-2-propyl-1-{[3-(trifluoromethyl)pyridin-2-yl]carbonyl}-3-{[5-(trifluoromethyl)thiophen-3-yl]oxy}piperidin-3-yl]carbonyl}-1,2,3,4-tetrahydroisoquinolin-1-yl)carbonyl]piperazin-1-yl}ethanol] | 101 to 20000

Other lines, results leading:

IC50 [nM] | SMILES
1 to 100 | CCC[C@H]1N(C(=O)c2ncccc2C(F)(F)F)CCC[C@@]1(Oc1csc(C(F)(F)F)c1)C(=O)N1CCc2cc(Cl)ccc2C1CC(=O)N1CCC(O)CC1 (stereo partly drawn) [Compound A85, 1-[(6-chloro-2-{[(2R,3S)-2-propyl-1-{[3-(trifluoromethyl)pyridin-2-yl]carbonyl}-3-{[5-(trifluoromethyl)thiophen-3-yl]oxy}piperidin-3-yl]carbonyl}-1,2,3,4-tetrahydroisoquinolin-1-yl)acetyl]piperidin-4-ol]
101 to 20000 | CCC[C@H]1N(C(=O)c2ncccc2C(F)(F)F)CCC[C@@]1(Oc1csc(C(F)(F)F)c1)C(=O)N1CCc2c(ccc(Cl)c2Cl)C1 [Compound A86, 5,6-dichloro-2-{[(2R,3S)-2-propyl-1-{[3-(trifluoromethyl)pyridin-2-yl]carbonyl}-3-{[5-(trifluoromethyl)thiophen-3-yl]oxy}piperidin-3-yl]carbonyl}-1,2,3,4-tetrahydroisoquinoline]
101 to 20000 | CCC[C@H]1N(C(=O)c2ncccc2C(F)(F)F)CCC[C@@]1(Oc1csc(C(F)(F)F)c1)C(=O)N1CCc2cc(Cl)c(Cl)cc2C1 [Compound A87, 6,7-dichloro-2-{[(2R,3S)-2-propyl-1-{[3-(trifluoromethyl)pyridin-2-yl]carbonyl}-3-{[5-(trifluoromethyl)thiophen-3-yl]oxy}piperidin-3-yl]carbonyl}-1,2,3,4-tetrahydroisoquinoline]
101 to 20000 | CCC[C@H]1N(C(=O)c2ncccc2C(F)(F)F)CCC[C@@]1(Oc1csc(C(F)(F)F)c1)C(=O)N1CCc2cc(SC)ccc2C1 [Compound A88, 6-(methylsulfanyl)-2-{[(2R,3S)-2-propyl-1-{[3-(trifluoromethyl)pyridin-2-yl]carbonyl}-3-{[5-(trifluoromethyl)thiophen-3-yl]oxy}piperidin-3-yl]carbonyl}-1,2,3,4-tetrahydroisoquinoline]
1 to 100 | CCC[C@H]1N(C(=O)c2ncccc2C(F)(F)F)CCC[C@@]1(Oc1csc(C(F)(F)F)c1)C(=O)N1CCc2cc(Cl)ccc2[C@H]1CCC(=O)N1CCN(CCO)CC1 [Compound A91, 2-(4-{3-[(1R)-6-chloro-2-{[(2R,3S)-2-propyl-1-{[3-(trifluoromethyl)pyridin-2-yl]carbonyl}-3-{[5-(trifluoromethyl)thiophen-3-yl]oxy}piperidin-3-yl]carbonyl}-1,2,3,4-tetrahydroisoquinolin-1 - yl]propanoyl}piperazin-1-yl)ethanol]
